These results are taken from US11479551B2, “MTA-cooperative PRMT5 inhibitors” (Mirati Therapeutics, Inc., priority 2019, dated 2022).

The test system of experiment [1] is PRMT5-dependent Symmetric Di-methyl Arginine signal in HCT116 homozygous MTAP knockout cells. Put plainly: SYM11 In-Cell Western, HCT116 MTAP knockout. It is filed as cell-based. How it is done:
(§1) 1. HCT116 MTAP Knockout Model
(§2) HCT116 cells were genetically engineered to knock out the function of both MTAP alleles using a CRISPR/Cas9 system and an sgRNA targeting the MTAP gene. Following Cas9/MTAP sgRNA transduction, clones were screened to confirm that each allele of the MTAP gene had been inactivated (i.e., homozygous MTAP knock out) creating an MTAP-deficient cell.
(§3) Control samples were analyzed in parallel.
Briefly, on Day 0, 2,000 HCT116 parental or HCT116 homozygous MTAP knockout cells were seeded in 96 well plates in McCoy's 5A supplemented with 10% fetal bovine serum and pen/strep and the cells were incubated overnight at 37° C. plus 5% CO2. The following day, cells were treated with DMSO vehicle control or a dose response of PRMT5 inhibitors, and incubated at 37° C. plus 5% CO^2 for four days.
After 4 days of treatment, the cells were fixed by adding 50 μl of 4% paraformaldehyde solution to each well and the cells were incubated for 20 min at room temperature. The paraformaldehyde solution was removed, 150 μl of ice-cold methanol was added and the plate was placed −20° C. for 10 minutes. The methanol was removed, 150 μl of Odyssey Blocking buffer+0.05% Tween20 was added and the plate was incubated at room temperature with shaking for one hour.
The primary SYM11 antibody solution was removed by aspiration and the wells were washed three consecutive times with phosphate buffered saline containing 0.1% Tween-20 (PBST).
The secondary antibody solution was removed by aspiration and the wells were washed three consecutive times with PB ST.
The SYM11 signal and the DRAQ5 signal were quantified using a Li-Cor Odyssey machine reading at […], respectively. The SYM11/DRAQ5 ratio was used to calculate the inhibition of Symmetric Dimethyl Arginine as percent of DMSO control.

The subject of experiment [2] is HCT116 homozygous MTAP knockout cells. Kind of experiment: Proliferation assay (CellTiter-Glo, 10 days of treatment), HCT116 MTAP knockout. It is filed as cell-based. As to conditions: read-out: Proliferation HCT116MTAP_KO IC50. How it is done: as §1, §2, §3
Briefly, on Day 0, 250 HCT116 parental or HCT116 homozygous MTAP knockout cell were seeded in 96 well plates in McCoy's 5A supplemented with 10% fetal bovine serum and pen/strep and the cells were incubated overnight at 37° C. plus 5% CO2.
The following day, cells were treated with DMSO vehicle control or a dose response of PRMT5 inhibitors and incubated at 37 C plus 5% CO2 for five days. On Day 6, the cells were trypsinized and split 1:10 into new 96-well plates with fresh medium containing the same concentration of PRMT5 inhibitor and incubated for an additional 5 days at 37° C. plus 5% CO^2.
On Day 11, the viability of the cells was measured using a CTG assay kit (CellTiter-Glo; Promega cat.no G7573) in accordance with the manufacturer's instructions. The IC50 values for each compound after 10 days of treatment were calculated using GraphPad PRISM software.
(ATP-based viability assays read luminescence as a measure of living cells.)

In experiment [3] the target is T1, PRMT5/MEP50 complex (Homo sapiens (Human), UniProt O14744). Kind of experiment: PRMT5:MEP50 HotSpot Assay (full-length histone H2A substrate, plus and minus MTA). It is filed as biochemical. The procedure, abridged: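 Radiometric filter-binding format using recombinant full-length histone H2A as substrate. After the reaction was stopped, mixtures went onto filter paper and tritiated H2A was quantified by scintillation counting.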
T1 sequence (O14744 2-637): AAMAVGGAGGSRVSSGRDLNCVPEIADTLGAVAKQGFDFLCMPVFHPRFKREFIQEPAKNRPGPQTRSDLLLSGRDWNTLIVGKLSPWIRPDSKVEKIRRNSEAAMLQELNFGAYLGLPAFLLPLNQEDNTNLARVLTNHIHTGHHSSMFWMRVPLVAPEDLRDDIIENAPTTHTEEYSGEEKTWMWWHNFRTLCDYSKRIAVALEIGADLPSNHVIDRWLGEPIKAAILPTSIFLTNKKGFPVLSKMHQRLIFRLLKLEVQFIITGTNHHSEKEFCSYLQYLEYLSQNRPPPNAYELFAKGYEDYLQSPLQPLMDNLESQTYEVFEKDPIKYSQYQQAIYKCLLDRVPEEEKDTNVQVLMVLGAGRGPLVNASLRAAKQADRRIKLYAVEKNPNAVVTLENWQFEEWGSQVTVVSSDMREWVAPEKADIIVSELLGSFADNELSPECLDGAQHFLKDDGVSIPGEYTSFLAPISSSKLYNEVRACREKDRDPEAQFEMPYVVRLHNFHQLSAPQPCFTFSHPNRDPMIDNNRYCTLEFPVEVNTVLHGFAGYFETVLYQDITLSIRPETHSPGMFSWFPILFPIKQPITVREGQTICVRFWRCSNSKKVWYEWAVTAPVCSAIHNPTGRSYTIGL
T1 sequence (Q9BQA1 2-342 partner): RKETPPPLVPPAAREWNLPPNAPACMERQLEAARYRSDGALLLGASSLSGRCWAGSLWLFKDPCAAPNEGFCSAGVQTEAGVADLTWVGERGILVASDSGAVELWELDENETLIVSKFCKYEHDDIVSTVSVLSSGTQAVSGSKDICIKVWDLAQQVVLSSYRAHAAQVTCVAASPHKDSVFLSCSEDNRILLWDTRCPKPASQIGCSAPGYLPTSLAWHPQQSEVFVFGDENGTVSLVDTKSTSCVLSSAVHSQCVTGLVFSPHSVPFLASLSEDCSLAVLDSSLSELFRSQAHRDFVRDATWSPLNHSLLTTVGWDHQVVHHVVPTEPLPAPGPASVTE

For experiment [4], the target named is T1, PRMT5/MEP50 complex. Put plainly: PRMT5:MEP50 FlashPlate Assay (histone H4 peptide substrate, plus and minus MTA). It is filed as biochemical. As to the method: The PRMT5 inhibitory activity of compounds of the present invention was determined using either a PRMT5:MEP50 FlashPlate Assay (Reaction Biology Corporation) or a PRMT5:MEP50 HotSpot Assay (Reaction Biology Corporation).
1. PRMT5:MEP50 FlashPlate Assay

Where [5] appears, read: Homo sapiens, HCT-116, 96 h, HCT116 homozygous MTAP knockout cells, 4 days of treatment, SYM11/DRAQ5 ratio; read-out: In-cell-Western (SYM11) HCT116 MTAP_KO IC50.
Where [6] appears, read: IC50 + 2 μM MTA, in the presence of 2 μM MTA.
Setting [7] is: in the absence of MTA, read-out: IC50.
[8] abbreviates: IC50 + 2 μM MTA (nM), in the presence of 2 μM MTA.

Where two headings read alike, the source gives them in different places.

As to `Cn1ncc(-c2cc(Cl)c3c(=O)[nH]nc(CN)c3c2)c1-c1cccc(OC2CC2)c1C#N` [Example 10-14, 2-(4-(4-(aminomethyl)-8-chloro-1-oxo-1,2-dihydrophthalazin-6-yl)-1-methyl-1H-pyrazol-5-yl)-6-cyclopropoxybenzonitrile], the IC50 in experiment [1] (setting [5]) was 75 nM; in experiment [2] (Homo sapiens, HCT-116, 240 h), 88 nM.
Turning to `Cc1cc2ccccc2c(C#N)c1-c1c(-c2ccc3c(=O)[nH]nc(CN)c3c2)cnn1C` [Example 12-15, 2-[4-[4-(aminomethyl)-1-oxo-2H-phthalazin-6-yl]-2-methyl-pyrazol-3-yl]-3-methyl-naphthalene-1-carbonitrile], the IC50 worked out at 189 nM in experiment [1] (setting [5]) and 261 nM in experiment [2] (Homo sapiens, HCT-116, 240 h).
Turning to `N#CCc1ccccc1Oc1cncc(-c2ccc3c(=O)[nH]nc(CN)c3c2)c1` [Example 4-235, 2-(2-((5-(4-(aminomethyl)-1-oxo-1,2-dihydrophthalazin-6-yl)pyridin-3-yl)oxy)phenyl)acetonitrile], the IC50 in experiment [1] (setting [5]) is more than 1000 nM; in experiment [2] (Homo sapiens, HCT-116, 240 h), more than 10000 nM.
As to `Cn1nc(F)c(-c2ccc3c(=O)[nH]nc(CN)c3c2)c1-c1ccc2ccccc2c1C#N` [Example 4-247, 2-(4-(4-(aminomethyl)-1-oxo-1,2-dihydrophthalazin-6-yl)-3-fluoro-1-methyl-1H-pyrazol-5-yl)-1-naphthonitrile], the IC50 is more than 1000 nM in experiment [1] (setting [5]) and 1810 nM in experiment [2] (Homo sapiens, HCT-116, 240 h).
With `Cn1ncc(-c2ccc3c(=O)[nH]nc(CN)c3c2)c1-c1c(F)c(Cl)cc(OC2CC2)c1C#N` (single isomer, unassigned) [Example 16-8, 2-(4-(4-(aminomethyl)-1-oxo-1,2-dihydrophthalazin-6-yl)-1-methyl-1H-pyrazol-5-yl)-4-chloro-6-cyclopropoxy-3-fluorobenzonitrile], the IC50 was determined as 0.8 nM in experiment [1] (read-out: In-cell-Western (SYM11) HCT116 MTAP_KO IC50; HCT116 homozygous MTAP knockout cells, 4 days of treatment, SYM11/DRAQ5 ratio) and 24 nM in experiment [2].
For the compound `Cn1ncc(-c2ccc3c(=O)[nH]nc(CN)c3c2)c1-c1ccc2nscc2c1C#N` [Example 4-250, 5-(4-(4-(aminomethyl)-1-oxo-1,2-dihydrophthalazin-6-yl)-1-methyl-1H-pyrazol-5-yl)benzo[c]isothiazole-4-carbonitrile], the IC50 in experiment [1] (setting [5]) was determined as 51 nM; in experiment [2] (Homo sapiens, HCT-116, 240 h), 757 nM.
Turning to `Cn1ncc(-c2ccc3c(=O)[nH]nc(CN)c3c2)c1-c1cn2ccccc2c1C#N` [Example 4-240, 2-(4-(4-(aminomethyl)-1-oxo-1,2-dihydrophthalazin-6-yl)-1-methyl-1H-pyrazol-5-yl)indolizine-1-cathonitrile], the IC50 in experiment [1] (setting [5]) was more than 1000 nM; in experiment [2] (Homo sapiens, HCT-116, 240 h), 3560 nM.
On to `Cn1ncc(-c2ccc3c(=O)[nH]nc(CN)c3c2)c1-c1ccc(Cl)c(OC2CC2)c1C#N` [Example 4-208, 6-(4-(4-(aminomethyl)-1-oxo-1,2-dihydrophthalazin-6-yl)-1-methyl-1H-pyrazol-5-yl)-3-chloro-2-cyclopropoxybenzonitrile], for which the IC50 in experiment [1] (setting [5]) was 11 nM; in experiment [2] (Homo sapiens, HCT-116, 240 h), 124 nM.
Take `Cn1ncc(-c2ccc3c(=O)[nH]nc(CN)c3c2)c1-c1cccn2cncc12` [Example 4-239, 4-(aminomethyl)-6-(5-(imidazo[1,5-a]pyridin-8-yl)-1-methyl-1H-pyrazol-4-yl)phthalazin-1(2H)-one]: the IC50 in experiment [1] (setting [5]) is more than 1000 nM; in experiment [2] (Homo sapiens, HCT-116, 240 h) it was more than 10000 nM.
Turning to `Cc1cc(-c2cnn(C)c2-c2c(F)cc3ccccc3c2C#N)cc2c(CN)n[nH]c(=O)c12` [Example 10-15, 2-(4-(4-(aminomethyl)-8-methyl-1-oxo-1,2-dihydrophthalazin-6-yl)-1-methyl-1H-pyrazol-5-yl)-3-fluoro-1-naphthonitrile], the IC50 in experiment [1] (setting [5]) was found to be 4 nM; in experiment [2] (Homo sapiens, HCT-116, 240 h), 13 nM.
Regarding `CCOc1cc(-c2cnn(C)c2-c2ccc3ccccc3c2C#N)cc2c(CN)n[nH]c(=O)c12` [Example 13-2, 2-[4-[4-(aminomethyl)-8-ethoxy-1-oxo-2H-phthalazin-6-yl]-2-methyl-pyrazol-3-yl]naphthalene-1-carbonitrile], the IC50 is 64 nM in experiment [1] (setting [5]) and 149 nM in experiment [2] (Homo sapiens, HCT-116, 240 h).
Take `Cn1ncc(-c2ccc3c(=O)[nH]nc(CN)c3c2)c1-c1ccc2c(cnn2C)c1C#N` [Example 4-249, 5-(4-(4-(aminomethyl)-1-oxo-1,2-dihydrophthalazin-6-yl)-1-methyl-1H-pyrazol-5-yl)-1-methyl-1H-indazole-4-carbonitrile]: the IC50 in experiment [1] (setting [5]) is more than 1000 nM; in experiment [2] (Homo sapiens, HCT-116, 240 h) it was 3510 nM.
As for `Cn1ncc(-c2ccc3c(=O)[nH]nc(CN)c3c2)c1-c1sc2ncccc2c1C#N` [Example 4-244, 2-(4-(4-(aminomethyl)-1-oxo-1,2-dihydrophthalazin-6-yl)-1-methyl-1H-pyrazol-5-yl)thieno[2,3-b]pyridine-3-carbonitrile], the IC50 was 42 nM in experiment [1] (setting [5]) and 327 nM in experiment [2] (Homo sapiens, HCT-116, 240 h).
Take `Cn1ncc(-c2ccc3c(=O)[nH]nc(CN)c3c2)c1-c1cc(OC(F)(F)F)cc(OC2CC2)c1C#N` [Example 4-252, 2-(4-(4-(aminomethyl)-1-oxo-1,2-dihydrophthalazin-6-yl)-1-methyl-1H-pyrazol-5-yl)-6-cyclopropoxy-4-(trifluoromethoxy)benzonitrile]: the IC50 in experiment [1] (setting [5]) stood at 4 nM; in experiment [2] (Homo sapiens, HCT-116, 240 h), 87 nM.
Consider `Cn1ncc(-c2ccc3c(=O)[nH]nc(CN)c3c2)c1-c1cn(Cc2ccccc2C#N)nc1Cl` [Example 4-232, 2-((4-(4-(aminomethyl)-1-oxo-1,2-dihydrophthalazin-6-yl)-3′-chloro-2-methyl-1′H,2H-[3,4′-bipyrazol]-1′-yl)methyl)benzonitrile], for which the IC50 was 148 nM in experiment [1] (setting [5]) and 4770 nM in experiment [2] (Homo sapiens, HCT-116, 240 h).
Regarding `Cn1ncc(-c2ccc3c(=O)[nH]nc(CN)c3c2)c1-c1ccc2cccc(F)c2c1C#N` [Example 4-234, 2-(4-(4-(aminomethyl)-1-oxo-1,2-dihydrophthalazin-6-yl)-1-methyl-1H-pyrazol-5-yl)-8-fluoro-1-naphthonitrile], the IC50 is 129 nM in experiment [1] (setting [5]) and 206 nM in experiment [2] (Homo sapiens, HCT-116, 240 h).
Take `CC(N)c1n[nH]c(=O)c2ccc(-c3cnn(C)c3-c3ccc4ccccc4c3C#N)cc12` (single isomer, unassigned) [Example 9-4, 2-[4-[4-(1-aminoethyl)-1-oxo-2H-phthalazin-6-yl]-2-methyl-pyrazol-3-yl]naphthalene-1-carbonitrile]: the IC50 in experiment [1] (HCT116 homozygous MTAP knockout cells, 4 days of treatment, SYM11/DRAQ5 ratio; read-out: In-cell-Western (SYM11) HCT116 MTAP_KO IC50) is more than 1000 nM; in experiment [2] it was 4180 nM.
As to `Cc1cc(OC2CC2)c(C#N)c(-c2c(-c3cc(Cl)c4c(=O)[nH]nc(CN)c4c3)cnn2C)c1F` [Example 10-20, 2-(4-(4-(aminomethyl)-8-chloro-1-oxo-1,2-dihydrophthalazin-6-yl)-1-methyl-1H-pyrazol-5-yl)-6-cyclopropoxy-3-fluoro-4-methylbenzonitrile], the IC50 in experiment [1] (setting [5]) was 29 nM; in experiment [2] (Homo sapiens, HCT-116, 240 h) it was 35 nM.
Consider `NCc1n[nH]c(=O)c2ccc(-c3cnc4[nH]ccc4c3)cc12` [Example 3-59, 4-(aminomethyl)-6-(1H-pyrrolo[2,3-b]pyridin-5-yl)phthalazin-1(2H)-one], for which the IC50 on PRMT5/MEP50 complex [3] (setting [6]) is 1140 nM; on PRMT5/MEP50 complex [3] (setting [7]), more than 10000 nM; at PRMT5/MEP50 complex [4] (setting [8]), 7.7 nM; on PRMT5/MEP50 complex [4] (setting [7]), 399 nM.
Regarding `Cc1c[nH]c2ncc(-c3ccc4c(=O)[nH]nc(CN)c4c3)cc12` [Example 4-40, 4-(aminomethyl)-6-(3-methyl-1H-pyrrolo[2,3-b]pyridin-5-yl)phthalazin-1(2H)-one], the figures for the IC50 at PRMT5/MEP50 complex [3] (setting [6]), on PRMT5/MEP50 complex [4] (setting [8]) and at PRMT5/MEP50 complex [4] (setting [7]) were 3170 nM, 10 nM and 276 nM, respectively.
